Holding throughout (assay): NCI-60 cell line screen, 48 h
Assay [1] relates to UO-31 renal.
In assay [2] the test system is HOP-92 NSCLC.
Assay [3] deals with SF-539 CNS.
In assay [4] the test system is A549 NSCLC.
In assay [5] the test system is MALME-3M melanoma.
Assay [6] deals with CCRF-CEM leukemia.
Assay [7] concerns SK-OV-3 ovarian.
The test system of assay [8] is SK-MEL-5 melanoma.
For assay [9], the system named is SNB-19 CNS.
Assay [10] deals with A498 renal.

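Tested at 5 concentrations; 48 h exposure; 96-well plates; endpoints linearly interpolated, else capped at highest concentration. GI50 = concentration required for 50% inhibition of growth. At the TGI there is no net growth.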 A value given as a limit tells only on which side of the number the result lay.

Take `CCOC(=O)c1c(C)c2c(n1Cc1ccccc1)CSCC2=O`: the GI50 is 13.5 µM in assay [1]; 1.21 µM in assay [2]; 17.5 µM in assay [3]; 30.6 µM in assay [4]; 17.5 µM in assay [5]; 29.9 µM in [6]. The figures for the GI50 in [7], in assay [8] and in [9] were 23.8 µM, 11.6 µM and 14.2 µM, respectively. Moreover, the TGI is above 100 µM in assay [1]; 19.8 µM in [2]; 50.9 µM in assay [3]; above 100 µM in [4]; 49.2 µM in assay [5]; above 100 µM in [6]. Further, the TGI in [7] was above 100 µM; in assay [8], 23.9 µM; in [9], above 100 µM.

On to `CCOC(=O)C(Br)=C1OC(=O)c2ccccc2-c2ccccc21` (mixture of isomers), for which the TGI was above 100 µM in assay [1]; 29.5 µM in assay [2]; 46.8 µM in [3]; above 100 µM in assay [4]; 37.6 µM in assay [5]; 40.2 µM in assay [6]. For the same molecule, the TGI is above 100 µM in assay [7] and 35.8 µM in assay [8].

`CC(C)C1CN(C(=O)OCc2ccccc2)C2N1C(=O)C2(C)OCc1ccccc1` (stereo not given): the TGI in assay [1] was 68.8 µM; in [3] it was above 100 µM; in [4], above 100 µM; in [5], above 100 µM; in assay [6], above 100 µM; in assay [8] it was 29.5 µM. For the same molecule, the TGI in assay [10] was 95.8 µM; in assay [9], above 100 µM.

Turning to `CCC(C)(C)n1c(C)nc2c1C(=O)c1ccccc1C2=O`, the TGI in assay [1] is 90.7 µM; in assay [3], above 100 µM; in assay [4], above 100 µM; in assay [5], 86.7 µM; in [6], above 100 µM; in assay [7] it was above 100 µM. In addition, the TGI was 33.7 µM in assay [8] and above 100 µM in [9].

On to `O=c1[nH]c(O)c(C=Nc2ccc(-c3nc4ccccc4o3)cc2)c(=O)[nH]1`, for which the GI50 in assay [1] is 82.4 µM; in [2] it was above 100 µM; in assay [3], 27.4 µM; in [4], 74.9 µM; in [7] it was above 100 µM; in [8], 44.8 µM. Also, the GI50 in [9] is above 100 µM. The TGI in [1] is above 100 µM; in assay [2], above 100 µM; in assay [3] it was 62.7 µM; in assay [4] it was above 100 µM; in [7], above 100 µM; in [8] it was above 100 µM. In addition, the TGI in assay [9] was above 100 µM.

For `COC(=O)c1c(C)cc(OC)c(C/C=C(\C)CCCc2coc(C=C(C)C)c2)c1OC`, the TGI in assay [1], in assay [2], in assay [3], in assay [4], in assay [6] and in assay [8] was above 100 µM in each case. The molecule further registered a TGI in assay [9] above 100 µM.

As to `COc1c(C)c(OCC=C(C)C)cc(CO)c1CO`, the TGI in assay [2] is above 100 µM; in assay [3], above 100 µM; in [4], above 100 µM; in [6], above 100 µM; in assay [7], above 100 µM; in assay [8], 59.1 µM. Also, the TGI in assay [10] and in assay [9] was above 100 µM throughout.

Regarding `Cc1nc2c(Br)cc(Br)cc2c(=O)n1-c1nnc(-c2cccc(Cl)c2Cl)c(N)n1`, the GI50 is 31 µM in assay [1]; 42.4 µM in assay [2]; 21.6 µM in assay [3]; 25.6 µM in assay [4]; 19.3 µM in assay [6]; 24.9 µM in assay [7]. For the same molecule, the GI50 was 17.2 µM in assay [8] and 42 µM in assay [9]. Also, the TGI was above 100 µM in [1]; above 100 µM in [2]; 60 µM in [3]; 85.1 µM in assay [4]; above 100 µM in assay [6]; above 100 µM in [7]. The TGI is 39 µM in assay [8] and above 100 µM in assay [9].

Take `O=C1C=C(Nc2ccc(Cl)cc2C(=O)c2ccccc2)c2ccccc2C1=O`: the TGI in assay [1], in assay [3], in assay [4], in assay [5], in [6] and in assay [7] was above 100 µM each time. Besides, the TGI in [8], in assay [10] and in assay [9] was above 100 µM throughout.

As for `C=C(C)C(C1C=C(CCC(C=O)=C(C)C)C(=O)O1)C1(OC)C=C(C)C(=O)O1` (stereo not given), the GI50 was 97.1 µM in [1]; above 100 µM in assay [2]; above 100 µM in assay [3]; above 100 µM in [4]; above 100 µM in assay [5]; 25.3 µM in [6]. Moreover, the GI50 in assay [7] is above 100 µM; in assay [8], 71.4 µM; in [9], above 100 µM. Also, the TGI in assay [1], in assay [2], in assay [3], in assay [4], in [5] and in assay [6] was above 100 µM each time. Moreover, the TGI in assay [7], in [8] and in [9] was above 100 µM each time.

Turning to `C[C@H](CCOc1cccc(CC(=O)O)c1)N(Cc1cccc(C(F)(F)F)c1Cl)CC(c1ccccc1)c1ccccc1`, the GI50 in assay [1] is 2.36 µM; in assay [2], 3.21 µM; in assay [3], 6.14 µM; in assay [4], 3.94 µM; in assay [5], 7.39 µM; in assay [6], 3.69 µM. In addition, the GI50 in assay [8] is 3.95 µM; in assay [9], 6.25 µM. Also, the TGI in assay [1] stood at 14.7 µM; in [2], 16.5 µM; in assay [3], 20.4 µM; in assay [4], 18.9 µM; in assay [5], 21.7 µM; in [6], 20.1 µM. Moreover, the TGI in assay [8] amounted to 14.6 µM; in [9], 19.8 µM.
